Reference: patent US20190307833A1, “TREATMENT OF AGE-RELATED MACULAR DEGENERATION WITH NEUROTROPHIC PEPTIDERGIC COMPOUND” (The Research Foundation for Mental Hygiene, Inc., priority 2018, published 2019)
*1 amine or outer side, *2 acyl side, *3 side chain or, on linkers, in order; H or OH if unused. Where a SMILES comes first, the peptide text is derived from it. [ ]: non-standard residue; d: D form. X1 = O=C(C1(N[*:1])C2CC3CC(C2)CC1C3)[*:2]

Key:
GFAP [1] = experiment: GFAP immunofluorescence (astrogliosis) in retina of aged 3×Tg-AD mice; format: in vivo, mouse; details: 60 nmoles/g feed from 3 to 21 months of age
Excerpt: (§1) At approximately 3 months of age, the female wild type and 3×Tg-AD mice were divided into five groups (n=6-7 mice per group) (FIG. 3A): (1) Wild type mice, age 3 months, without treatment (WT-3m); (2) 3×Tg-AD mice, age 3 months, without treatment (3×Tg-3m); (3) Wild type mice, age 3 months, treated with vehicle feed without P021 until the age of 21 months (WT-21m/Veh); (4) 3×Tg-AD-mice, age 3 months, treated with vehicle feed without P021 until the age of 21 months (3×Tg-21m/Veh); and (5) 3×Tg-AD-mice, age 3 months, treated with 60 nmol P021/g feed till the age of 21 months (3×Tg-21m/P021). The first two groups were the starting point and were employed as the matched young controls. P021 was formulated in the feed by Research Diets (New Brunswick, N.J., USA). Food consumption and body weight were recorded every 2 weeks and every month, respectively. The average mouse food consumption was ˜2.7 g feed/day.
(§2) The animals were anesthetized by using an overdose of avertin and then were transcardially perfused by using 0.1 M phosphate-buffered saline (PBS). Eyeballs were dissected out from the carcasses, immersion-fixed for 24 hours in 4% paraformaldehyde at 4° C., and then transferred to 70% alcohol for storage; in the case of mice, the eyeballs were prefixed by injecting 4% paraformaldehyde, followed by removal from the carcasses and immersion fixation as above. After the cornea and lens of the left eyes were removed, the remaining eye cup was embedded in paraffin with the orientation parallel to the optic nerve in longitudinal position. In all cases, 5-μm serial sections were cut by using a rotary microtome and were mounted on Superfrost Plus slides.
(§3) Paraffin sections were deparaffinized, rehydrated, and subjected to antigen retrieval by boiling for 20 minutes in 10 mM sodium citrate solution (pH 6.0). […] The area to be analyzed was selected and converted to grey scale, the threshold (Yen mode) was adjusted, and the area percentage of positive staining was measured for each section by using the NIH Image J software package. […]

total tau, P-tau, Aβ/APP [2] = experiment: Tau, phosphorylated tau and Aβ/APP immunofluorescence in retina and optic nerve of aged 3×Tg-AD mice; format: in vivo, mouse
Excerpt: as §1, §2
(§4) Paraffin sections were deparaffinized, rehydrated, and subjected to antigen retrieval by boiling for 20 minutes in 10 mM sodium citrate solution (pH 6.0). Sections were then washed three times in 10 mM PBS for 15 minutes each and incubated in 0.3% Triton X-100 for 30 minutes. The sections were again washed in 10 mM PBS (15 minutes, three times each) and blocked in blocking solution (5% normal goat serum containing 0.1% Triton X-100 and 0.05% Tween 20 in PBS) for 45 minutes. Sections were then incubated overnight at 4° C. with the corresponding primary antibodies (see Table 1 for antibodies used in this study) diluted in the same blocking solution. After being washed three times for 15 minutes each with 10 mM PBS, sections were incubated with Alexa-Fluor 488-conjugated goat anti-mouse or anti-rabbit IgG secondary antibodies (1:1000) in 10 mM PBS with 0.05% Tween 20 for 2 hours at room temperature. Sections were subsequently washed one time and incubated with To-Pro (1:1000) for 15 minutes. After being washed three times for 15 minutes, sections were mounted and cover-slipped by using ProLong Gold anti-fade reagent. The absence of primary antibody control staining was included in each experiment as a negative control. Double immunofluorescence and To-Pro images were captured at equal camera exposure (for each antibody staining) with a Nikon EZ-C1 laser confocal imaging system. The area to be analyzed was selected and converted to grey scale, the threshold (Yen mode) was adjusted, and the area percentage of positive staining was measured for each section by using the NIH Image J software package. The staining area was averaged from 2-3 independent sections of each eye (n=5-7 different animals per group).

RPE of aged Fisher rats = experiment: Auto-fluorescence of RPE lipofuscin granules and deposits in aged Fisher rats; format: in vivo, rat; details: 500 nmoles/kg/day by gavage, 3 months
Protocol: (§5) Female aged (19˜21 months) Fisher rats (n=7) were given P021 per os by gavage (10 ml/kg body weight) once a day for 88 days. The dose of P021 was 500 nanomoles (289.15 microgram)/kg body weight daily. As controls, a second group of aged (19˜21 months) female rats (n=7) and a group of young adult female rats (2-3 months, n=7) were treated identically, but with normal saline (vehicle) only (FIG. 1A). Administration of vehicle and test compound was done at 7-9 AM daily in the pretesting phase.
(§6) The animals were anesthetized by using an overdose of avertin and then were transcardially perfused by using 0.1 M phosphate-buffered saline (PBS). Eyeballs were dissected out from the carcasses, immersion-fixed for 24 hours in 4% paraformaldehyde at 4° C., and then transferred to 70% alcohol for storage; in the case of mice, the eyeballs were prefixed by injecting 4% paraformaldehyde, followed by removal from the carcasses and immersion fixation as above. […]
(§7) Paraffin sections were deparaffinized, rehydrated, and covered with coverslips with 0.1M PBS and then photographed by using a confocal microscope with red channel (λex=543, λem=590/50), as described previously. […] For quantification, the number of deposits between RPE and Cho in each section was manually counted by using a 20× or, where necessary, a higher magnification objective.

Iba-1 [3] = experiment: Iba-1 immunofluorescence (microgliosis) in retina of aged rats; format: in vivo, rat; details: 500 nmoles/kg/day by gavage, 3 months
Protocol: as §5, §2
as §3, with “6.0). Sections were then washed three times in 10 mM PBS for 15 minutes each and incubated in 0.3% Triton X-100 for 30 minutes. The sections were again washed in 10 mM PBS (15 minutes, three times each) and blocked in blocking solution (5% normal goat serum containing 0.1% Triton X-100 and 0.05% Tween 20 in PBS) for 45 minutes.” for “6.0).”

[4] = BBB studies through a commercial service (APREDICA)
Iba-1 [5] = experiment: Iba-1 immunofluorescence (microgliosis) in retina of aged 3×Tg-AD mice; format: in vivo, mouse; details: 60 nmoles/g feed from 3 to 21 months of age
Excerpt: as §1, with “feed/day. […]” for “feed/day.”
as §3

[6] = Stability in artificial intestinal juice; format: in vitro ADME; details: simulated intestinal fluid; during 120 minutes; read-out: stable in artificial intestinal juice
Protocol: (§8) P021 is quite stable in artificial gastric juice (˜90% during 30 minutes) and in artificial intestinal juice (˜95% during 120 minutes).

[7] = system: rat and mouse models of AD; details: cited from earlier work
[8] = system: retina of aged 3×Tg-AD mice; experiment: Retinal morphology by H & E staining in aged 3×Tg-AD mice; format: in vivo, mouse; details: 60 nmoles/g feed from 3 to 21 months of age
Excerpt: as §1, §2
(§9) Every 25th retinal section was deparaffinized and subjected to hematoxylin and eosin (H & E) staining to evaluate the morphology. The H & E staining images were captured with a light microscope using 2×, 40×, and 100× objective lenses. Because there is no significant difference between the ⅕th to the ⅓rd of the retina from the optic nerve head and the most peripheral part, the ⅕^th position of the retina from the optic nerve to the most peripheral part of the retina was chosen as the “central,” and the most peripheral part of the retina as “peripheral.” Rows of the outer nuclear layer (ONL) and the inner nuclear layer (INL) of the retina in each group (every 25th section, 3-5 sections per rat or mouse) were manually counted in three columns per image by using a 40× or, where necessary, a higher magnification objective. The thicknesses of the ONL and INL of the central and peripheral retina in each group (every 25th section from the optic nerve head, 2-3 sections per rat or mouse) were measured and quantified by using the ImageJ/NIH image analysis system.

[9] = Stability in artificial gastric juice; format: in vitro ADME; details: simulated gastric fluid; during 30 minutes; read-out: stable in artificial gastric juice
Protocol: as §8

[10] = cited from earlier work
total tau, P-tau, Aβ/APP [11] = experiment: Tau, phosphorylated tau and Aβ/APP immunofluorescence in retina of aged rats; format: in vivo, rat
Protocol: as §5, §2, §4

RPE of aged 3×Tg-AD mice = experiment: Auto-fluorescence of RPE lipofuscin granules and deposits in aged 3×Tg-AD mice; format: in vivo, mouse
Excerpt: as §1, §2, §7

[12] = chronic oral treatment, aged rats and mice; cited from earlier work
GFAP [13] = experiment: GFAP immunofluorescence (astrogliosis) in retina of aged rats; format: in vivo, rat
Protocol: as §5, §6, §3

VEGF = VEGF immunofluorescence in retina and optic nerve of aged 3×Tg-AD mice; format: in vivo, mouse
Excerpt: as §1, §2, §3

[14] = system: retina of aged Fisher rats; experiment: Retinal morphology by H & E staining in aged Fisher rats; format: in vivo, rat; details: 500 nmoles/kg/day by gavage, 3 months
Protocol: as §5, §2, §9

[15] = 3×Tg-AD mice, 60 nmoles/g feed from 3 to 21 months of age
[16] = 60 nmoles/g feed from 3 to 21 months of age, auto-fluorescence

## CC(=O)N[C@@H](CC(=O)O)C(=O)NCC(=O)NCC(=O)N[C@@H](CC(C)C)C(=O)NC1(C(N)=O)C2CC3CC(C2)CC1C3 (stereo partly shown) [P021, Ac-DGGL^AG-NH2] (Ac-DGGL[X1]-NH2)
GFAP [1]
  area percentage of GFAP from the NFL to the ONL in the central retina: reduced by P021 treatment to the levels in WT-3m/Veh and 3×Tg-3 m/Veh mice
  distribution of GFAP-positive staining: limited to the NFL and GCL
GFAP [1]; similar trend
  area percentage of GFAP in the peripheral retina: did not reach statistical significance
Total tau, P-tau, Aβ/APP [2]; [15]
  tau and Aβ pathologies in the retina: prevented the increase in tau and Aβ pathologies
Total tau, P-tau, Aβ/APP [2]; retinas of aged mice
  Aβ/APP immunoreactivity: prevents increase of Aβ/APP immunoreactivity
  tau hyperphosphorylation at Ser-202/Thr-205 (AT8 site): prevents increase in the expression of tau hyperphosphorylation at Ser-202/Thr-205
  tau hyperphosphorylation at Ser-396/404 (PHF-1 site): prevents increase in the expression of tau hyperphosphorylation at Ser-396/404
  total tau immunoreactivity (R134d): prevents the increase in total tau immunoreactivity
RPE of aged Fisher rats
  lipofuscin granules and deposition number between RPE and Cho: obviously decreased
Iba-1 [3]
  relative Iba-1 immunostaining from the NFL to the OS, central and peripheral retinas: dramatically reduced
Iba-1 [3]; especially central retina
  Iba-1 staining from the ONL to the OS: no staining was found from the ONL to the OS
Iba-1 [3]; vs vehicle aged rats
  localization of Iba-1 from the NFL to the OPL: decrease in localization from the NFL to the OPL
[4]
  crossing of the BBB: a sufficient amount of P021 crossed the BBB
Iba-1 [5]
  Iba-1 immunostaining (area percentage) in the peripheral retina: decreased in 3×Tg-21 m/P021 mice to the levels in WT-3 m/Veh and 3×Tg-3 m/Veh mice
  distribution of Iba-1-positive staining in the central retina: Iba-1-positive staining was only observed in the GCL
[6]
  remaining at 2 h: ~95%
[7]
  cognitive impairment, synaptic deficit, neuroinflammation, tau and Aβ pathologies: rescue cognitive impairment, synaptic deficit, neuroinflammation, and tau and Aβ pathologies
[8]
  decrease in rows and thickness of INL in the central retina: chronic treatment with P021 prevented these changes
  decrease in rows and thickness of ONL in the central retina: prevented
  decrease in rows and thickness of ONL in the peripheral retina: not in the peripheral retina
  extension of ONL nuclei across the OPL into the INL, central retina: this pathology was prevented
  prevention of changes in rows and thickness of INL in the peripheral retina: did not reach significance
  rescue of INL thickness in the central retina: did not reach statistical significance
[9]
  remaining at 0.5 h: ~90%
[10]
  oral bioavailability: orally bioavailable
Total tau, P-tau, Aβ/APP [11]; aged rats, 500 nmoles/kg/day by gavage, 3 months
  tau and Aβ pathologies in the retina: prevented the increase in tau and Aβ pathologies
Total tau, P-tau, Aβ/APP [11]; retinas of aged rats
  Aβ/APP immunoreactivity: prevents increase of Aβ/APP immunoreactivity
  tau hyperphosphorylation at Ser-202/Thr-205 (AT8 site): prevents increase in the expression of tau hyperphosphorylation at Ser-202/Thr-205
  tau hyperphosphorylation at Ser-396/404 (PHF-1 site): prevents increase in the expression of tau hyperphosphorylation at Ser-396/404
  total tau immunoreactivity (R134d): prevents the increase in total tau immunoreactivity
RPE of aged 3×Tg-AD mice; [16]
  deposits between the RPE and Cho: significantly reduced
  lipofuscin granules in RPE: some small lipofuscin granules could still be observed
RPE of aged 3×Tg-AD mice; P021 administered in the diet
  RPE and BM abnormalities (AMD features) overall: Most of these AMD features were prevented
[12]
  general physical state (side effects): did not reveal any worsening in general physical state
GFAP [13]
  area percentage of GFAP-positive staining, central and peripheral retinas: drastically elevated in the central and peripheral retinas in ˜22- to 24-month-old/Veh rats as compared to ˜5- to 6-month-old/Veh rats and ˜22- to 24-month-old/P021 rats
GFAP [13]; 500 nmoles/kg/day by gavage, 3 months, vs vehicle aged rats
  GFAP staining: reduced very much
VEGF; [15]
  VEGF staining in the optic nerve: the size of the staining patch was decreased
  localization of VEGF-positive spots in the retina: limited mainly to the GFL to the IPL
VEGF; aged mice
  expression of VEGF in retinas: prevents increase in the expression of VEGF
[14]
  RPE vacuolization and atrophy: no apparent abnormalities were observed
  arrangement of apical microvilli (AM) in RPE: showed improvement in the arrangement of AM
  decrease in rows and thickness of ONL, central vs peripheral retina: prevented these pathological changes more effectively in the central retina
  outer retinal folds and rosette-like structures in the central retina: No abnormal structure like this was observed
  rows and thickness of INL in the central retina: no detectable effect
  rows and thickness of ONL, P021-treated aged rats vs young rats: no significant difference between ˜5- to 6-month-old rats and P021-treated ˜22- to 24-month-old rats
  rows of INL in the peripheral retina: showed a clear trend to rescue the number of rows
